The record followed here is patent US6841549B1, “Condensed imidazole compounds and a therapeutic agent for diabetes mellitus” (Eisai Co., Ltd., priority 1999, dated 2005).

In one test the target is T1, adenosine A2a receptor (Homo sapiens, UniProt P29274).
T1 construct: purchased Receptor Biology Inc
Nature of the test: Adenosine A2a receptor binding assay (3H-CGS21680). Conditions: 3H-CGS21680 binding, membrane over-expressing A2a receptor, Cheng-Prusoff; read-out: inhibition constant (Ki value). The procedure:
A membrane specimen prepared by over-expression of adenosine A2a receptor was purchased from Receptor Biology Inc., and used to carry out adenosine A2a receptor binding assays. The purchased membrane specimen was suspended at a concentration of 22.2 μg/ml inan incubation buffer (20 mM HEPES, 10 mm MgCl2 and 100 mM NaCl, pH 7.4). To 0.45 ml of this membrane specimen were added 0.25ml of tritium-labeled^3H-CGS21680 (500 nM; 30 Ci/mmol) and 0.025 ml of the test compound. The solution of the test compound was prepared by dissolving the compound at a concentration of 20 mM in DMSO and then successively diluting the solution 10-fold with the incubation buffer. […] Thereafter, the glass fiber filter was transferred to a vial bottle, a scintillator was added thereto, and the radioactivity on the filter was measured by a liquid scintillation counter. The rate of inhibition of (^3H-CGS21680) binding to the A2a receptor by the test compound was calculated using the following equation, and from this rate of inhibition, IC50 was calculated. […]
The total binding amount is ^3H-CGS21680 binding radioactivity in the absence of the test compound. The non-specific binding amount is ^3H-CGS21680 binding radioactivity in the presence of […] of RPIA. The binding amount in the presence of drug is ^3H-CGS21680 binding radioactivity in the presence of the test compound of various concentrations. […]

The test system of test [1] is primary cultured rat hepatic cells. Nature of the test: Inhibition of NECA-stimulated glucose production in primary cultured rat hepatic cells. Conditions: primary cultured Wistar rat hepatic cells, NECA 0.1, 1 hour; read-out: IC50 for inhibition of NECA-stimulated glucose release. The format is cell-based. The method, then:
Hepatic cells were separated by a collagenase perfusion method from livers of male rats of Wistar strain and subjected to a primary culture in a William's Medium E containing 5% calf serum, 10^−6 M insulin and 10^−7 M dexamethasone. After 1 day, the hepatic cells were washed with a Krebs-Ringer Bicarbonate buffer (mM) (NaCl 118, KCl 4.8, KH2PO4 1.2, MgSO4 1.2, CaCl2 3.4, HEPES 10, NaHCO3 25) pH 7.4 (KRB) containing 10 mM HEPES and 0.1% bovine serum albumin and KRB was added thereto, then incubated at 37° C. After 30 minutes, NECA (N-ethylcarboxamide adenosine) (final concentration: […]) and a test compound were added thereto at the same time, the mixture was incubated for additional one hour, and the amount of glucose released into the incubation medium was measured.

The target in test [2] is T2, Human adenosine A2b receptor (Homo sapiens, UniProt P29275).
T2 construct: expressed in transfected cells; host or cells: CHOK1 cells
T2 sequence (P29275 1-332): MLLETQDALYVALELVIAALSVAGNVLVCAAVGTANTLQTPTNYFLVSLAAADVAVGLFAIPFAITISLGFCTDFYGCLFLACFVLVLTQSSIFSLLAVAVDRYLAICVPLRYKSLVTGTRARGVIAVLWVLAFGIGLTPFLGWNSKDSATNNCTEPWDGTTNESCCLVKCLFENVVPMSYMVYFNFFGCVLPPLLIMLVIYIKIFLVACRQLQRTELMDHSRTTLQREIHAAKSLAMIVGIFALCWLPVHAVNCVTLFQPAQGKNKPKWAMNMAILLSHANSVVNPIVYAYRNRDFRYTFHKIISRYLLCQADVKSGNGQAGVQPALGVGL
Nature of the test: Inhibition of NECA-stimulated cAMP production in receptor-expressing CHOK1 cells. The format is cell-based. Conditions: CHOK1 cells over-expressing human A2b receptor, NECA 30 nM. The method, then: Human adenosine A2b receptor cDNA was over-expressed in CHOK1 cells. The cells were uniformly placed on a 24-well plate at a density of 1.5×10^5cells/well, incubated overnight and then used for the assays. Affinity of the test compound for the A2b receptor was evaluated by using, as an index, the rate of suppression of the amount of cAMP produced by stimulation of an adenosine agonist NECA (30 nM) in the presence of the test compound. Thus, the plate was washed twice with 2 ml/well of Krebs-Ringer-Bicarbonate buffer (KRB) (mM) (NaCl 118, KCl 4.8, KH2PO4 1.2, MgSO4 1.2, CaCl2 3.4, HEPES 10, NaHCO3 25, pH 7.4) and then pre-incubated (0.5 ml/well) for 30 minutes. Thereafter, a mixed solution containing 600 μM Ro-20-1724 (phosphodiesterase inhibitor), 180 nM NECA, and a test compound at a concentration 6-times higher than in the reaction solution was added in an amount of […]. After 15 minutes, the reaction was stopped by replacing the reaction solution by 0.1 N HCl (300 μl/well). Measurement of cAMP was carried out using an Amersham cAMP EIA Kit.
The rate of inhibition of NECA-stimulated cAMP production by the test compound was calculated using the following equation: Rate of Inhibition (%)=[1−{(cAMP amount in the presence of NECA and test compound-Basal cAMP amount)/(cAMP amount stimulated only by NECA−Basal cAMP amount)}]×100.
IC50 was calculated from the rate of inhibition.

The test system of test [3] is spontaneously diabetic mice (KK-Ay/Ta Jcl). Nature of the test: Action on hyperglycemia in spontaneously diabetic mice (single administration). Format: in vivo. The conditions noted are these: male KK-Ay/Ta Jcl mice, 10 mg/kg oral, p < 0.01 vs. control (72.5 ± 3.7). The procedure:
Animals: Seven male KK-A^y/Ta Jcl mice for each group (purchased from Nippon Clair) Preparation and Administration of Test Compound: A test compound in a dose as shown in Table 1 was suspended in 0.5% aqueous methyl cellulose solution and was orally administered in a volume of 10 ml/kg. Collection of Blood Samples and Determination of Blood Sugar: Blood was collected from tail veins just before administration of the test compound and also 5 hours after the administration and blood sugar was determined. Method: Tail vein of a mouse was injured by a razor without anesthetization to bleed slightly. The blood (15 μl) was collected and immediately mixed with 135 μl of 0.6 M perchloric acid. Glucose in the supernatant separated by centrifugation (at 1500 g for10 minutes at 4° C. usingacooling centrifuge GS-6KR from Beckmann) was determined by Glucose CII Test Wako (Wako Pure Chemicals). The results are shown in terms of “(% ratio of blood sugar 5 hours after the administration to the blood sugar before the administration)±(standard error)”. The data were subjected to one-way layout analysis of variance and then subjected to multiple comparison of Dunnett type. Difference with p<0.05 was deemed significant.

Counter-ions that a name gives are not always drawn.

T1 sequence (P29274 whole entry): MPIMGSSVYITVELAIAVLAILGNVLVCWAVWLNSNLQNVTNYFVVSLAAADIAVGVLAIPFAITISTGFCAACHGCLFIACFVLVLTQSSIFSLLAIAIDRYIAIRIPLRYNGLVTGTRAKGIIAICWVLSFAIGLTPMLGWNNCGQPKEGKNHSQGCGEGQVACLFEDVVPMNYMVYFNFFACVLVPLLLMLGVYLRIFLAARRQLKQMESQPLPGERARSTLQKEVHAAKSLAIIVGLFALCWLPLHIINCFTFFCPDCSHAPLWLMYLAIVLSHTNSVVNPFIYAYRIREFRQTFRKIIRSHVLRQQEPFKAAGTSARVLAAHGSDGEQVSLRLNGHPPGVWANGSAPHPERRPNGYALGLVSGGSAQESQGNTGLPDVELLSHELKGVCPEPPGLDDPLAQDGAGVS

`Cl.Cn1cc(-n2c(-c3cccc(F)c3)nc3c(N)ncnc32)ccc1=O` [Example 5, 5-[6-Amino-8-(3-fluorophenyl)-9H-9-purinyl]-1-methyl-1,2-dihydro-2-pyridinone hdrochloride]: the Ki on adenosine A2a receptor came out at 3.2 nM. The figures for the concentration for half-maximal inhibition (IC50) in test [1] and in test [2] were 7.6 nM and 11 nM, respectively. In addition, in test [3], the “% ratio of blood sugar 5 hours after the administration to the blood sugar before the administration ± standard error” value was 47.3 ± 7.2%.

`C=CCn1c(-c2cccc(F)c2)nc2c(N)nc(C#CC3(O)CCC3)nc21` [Example 20, 1-{2-[9-Allyl-6-amino-8-(3-fIuorophenyl)-9H-2-purinyl]-1-ethynyl]}-1-cyclobutanol hydrochloride]: at adenosine A2a receptor, the Ki worked out at 9.6 nM. For the same molecule, the IC50 in test [1] was determined as 8.4 nM.
